Experimental data reported in US5258406A, “Sulfonimidamides” (priority 1992, dated 1993).
Like-named read-outs stand apart in the source and are kept apart here.

Experiments:
LX1 = format: in vivo; settings: oral, DX 10, from day 7 after implant
Description: (§1) The compounds were tested in C3H mice bearing a 6C3HED lymphosarcoma, also known as the Gardner lymphosarcoma (GLS), and in a variety of human tumor xenografts in CD1 nu/nu mice, including CX-1, LX-1, HXGC3, and VRC5. The 6C3HED lymphosarcoma was obtained from the Division of Cancer Treatment, National […] Institute, Tumor Bank, maintained at E. G. and G. Mason Research (Worcester, Mass.). The CX-1 human colon carcinoma and the LX-1 human lung carcinoma xenografts were obtained from the National Cancer Institute. The HXGC3 and VRC5 human colon xenografts were obtained from Dr. P. J. Houghton, St. Jude Children's Hospital in Memphis (see Br. J. Cancer, 37, 213 (1978)). First passage tumor was stored in liquid nitrogen using standard techniques. The transplanted tumor was reestablished from the Tumor Bank every six months or as needed. The tumor was maintained by serial passage twice weekly in C3H mice.
(§2) In the procedure the tumor was removed from passage animals and minced into 1- to 3-mm square fragments using sterile techniques. Tumor pieces were checked for sterility using both Antibiotic Medium 1 and Brain Heart Infusion (Difco, Detroit, Mich.). Recipient mice were shaved and tumor pieces were implanted subcutaneously in the auxiliary region by trocar. Drug therapy on the appropriate schedule was initiated on the day after tumor implant for 6C3HED and after a seven (7) day delay for xenografts (or other delay as noted in Table 2). The compound being tested was mixed with 2.5% Emulphor EL620 from GAF Corporation (1:40 dilution in saline). Food and water were provided ad libitium. The drug was administered orally in 0.5 ml of 2.5% Emulphor (unless otherwise indicated). The tumor was measured the day after treatment ended with two dimensional measurements (width and length) of the tumor taken using automated digital calipers interfaced to a microcomputer. Approximate weight for the tumor was calculated using the following formula [Worzalla, J. F., et al., Invest. New Drugs, 8, 241 (1990], (tumor weight in mg)=(width in mm)^2 ×(length in mm)/2.
(§3) At least one control group of an equal number of mice was treated with the same volume of 2.5% Emulphor only. The percent inhibition was determined by subtracting the ratio of the mean tumor size of the test group relative to the control group from one and multiplying the result times 100.
(§4) The results of several experiments in mice bearing a 6C3HED lymphosarcoma (or other tumor where indicated) when the indicated compounds were administered are provided in Table 2. In Table 2, column 1 gives the Example number of the compound used, column 2 lists the dose level in mg/kg, column 3 provides the percent inhibition of tumor growth, column 4 gives the number of mice which died relative to the total number of animals in the group, column 5 gives the method of administration of the compound, and column 6 gives the dosage schedule. The protocol used with other tumors was the same as with the 6C3HED lymphosarcoma.

HC1 = format: in vivo
Description: as §1, §2, §3, §4

VRC5 = format: in vivo; settings: oral, DX 10
Description: as §1, §2, §3, §4

6C3HED lymphosarcoma = assay: animal or person; format: in vivo
[1] = Johnson et al., J. Org. Chem. 44, 2055 (1979); cited from earlier work

## NS(=O)(=NC(=O)Nc1ccc(Cl)cc1)c1ccc(CO)cc1 (stereo not drawn) [Example 50]
LX1; 150 mg/kg
  % inhibition of tumor growth: 32%
  Tox/Tot (mice which died / total): 0/10
LX1; 300 mg/kg
  % inhibition of tumor growth: 34%
  Tox/Tot (mice which died / total): 0/10
HC1; IP 0.6 ml, 5 mg/kg, BIDX 14
  % inhibition of tumor growth: 6%
  Tox/Tot (mice which died / total): 0/10
HC1; IP 0.6 ml, 10 mg/kg, BIDX 14
  % inhibition of tumor growth: 31%
  Tox/Tot (mice which died / total): 0/10
HC1; IP 0.6 ml, 20 mg/kg, BIDX 14
  % inhibition of tumor growth: 33%
  Tox/Tot (mice which died / total): 0/10
HC1; IP 0.6 ml, 40 mg/kg, BIDX 14
  % inhibition of tumor growth: 71%
  Tox/Tot (mice which died / total): 1/10
HC1; oral, 75 mg/kg, BIDX 10
  % inhibition of tumor growth: 46%
  Tox/Tot (mice which died / total): 0/9
HC1; oral, 150 mg/kg, BIDX 10
  % inhibition of tumor growth: 23%
  Tox/Tot (mice which died / total): 2/9
VRC5; 150 mg/kg
  % inhibition of tumor growth: 27%
  Tox/Tot (mice which died / total): 0/10
VRC5; 300 mg/kg
  % inhibition of tumor growth: 59%
  Tox/Tot (mice which died / total): 0/10
6C3HED lymphosarcoma; IP, 5 mg/kg, BIDX 8
  Tox/Tot (mice which died / total): 0/10
6C3HED lymphosarcoma; IP, 10 mg/kg, BIDX 8
  Tox/Tot (mice which died / total): 0/10
6C3HED lymphosarcoma; IP, 20 mg/kg, BIDX 8
  Tox/Tot (mice which died / total): 0/10
6C3HED lymphosarcoma; IP, 40 mg/kg, BIDX 8
  Tox/Tot (mice which died / total): 1/10
6C3HED lymphosarcoma; IP, 75 mg/kg, BIDX 8
  Tox/Tot (mice which died / total): 0/10
6C3HED lymphosarcoma; IP, 150 mg/kg, BIDX 8
  Tox/Tot (mice which died / total): 0/10
6C3HED lymphosarcoma; IP, 150 mg/kg, DX 8
  Tox/Tot (mice which died / total): 0/10
6C3HED lymphosarcoma; IP, 300 mg/kg, BIDX 8
  Tox/Tot (mice which died / total): 9/10
6C3HED lymphosarcoma; IP, 300 mg/kg, DX 8
  Tox/Tot (mice which died / total): 1/10
6C3HED lymphosarcoma; Mus musculus, 6C3HED, ip, read-out: % inhibition of tumor growth, IP, 5 mg/kg, BIDX 8
  inhibition in vivo at 5 mg/kg: 34%
6C3HED lymphosarcoma; Mus musculus, 6C3HED, ip, read-out: % inhibition of tumor growth, IP, 10 mg/kg, BIDX 8
  inhibition in vivo at 10 mg/kg: 49%
6C3HED lymphosarcoma; Mus musculus, 6C3HED, ip, read-out: % inhibition of tumor growth, IP, 20 mg/kg, BIDX 8
  inhibition in vivo at 20 mg/kg: 72%
6C3HED lymphosarcoma; Mus musculus, 6C3HED, ip, read-out: % inhibition of tumor growth, IP, 40 mg/kg, BIDX 8
  inhibition in vivo at 40 mg/kg: 86%
6C3HED lymphosarcoma; Mus musculus, 6C3HED, ip, read-out: % inhibition of tumor growth, IP, 75 mg/kg, BIDX 8
  inhibition in vivo at 75 mg/kg: 96%
6C3HED lymphosarcoma; Mus musculus, 6C3HED, ip, read-out: % inhibition of tumor growth, IP, 150 mg/kg, BIDX 8
  inhibition in vivo at 150 mg/kg: 99%
6C3HED lymphosarcoma; Mus musculus, 6C3HED, ip, read-out: % inhibition of tumor growth, IP, 150 mg/kg, DX 8
  inhibition in vivo at 150 mg/kg: 93%
6C3HED lymphosarcoma; Mus musculus, 6C3HED, ip, read-out: % inhibition of tumor growth, IP, 300 mg/kg, BIDX 8
  inhibition in vivo at 300 mg/kg: 100%
6C3HED lymphosarcoma; Mus musculus, 6C3HED, ip, read-out: % inhibition of tumor growth, IP, 300 mg/kg, DX 8
  inhibition in vivo at 300 mg/kg: 99%
6C3HED lymphosarcoma; Mus musculus, 6C3HED, po, read-out: % inhibition of tumor growth, oral, 75 mg/kg, BIDX 8
  inhibition in vivo at 75 mg/kg: 99%
6C3HED lymphosarcoma; Mus musculus, 6C3HED, po, read-out: % inhibition of tumor growth, oral, 150 mg/kg, BIDX 8
  inhibition in vivo at 150 mg/kg: 100%
6C3HED lymphosarcoma; Mus musculus, 6C3HED, po, read-out: % inhibition of tumor growth, oral, 300 mg/kg, BIDX 8
  inhibition in vivo at 300 mg/kg: 100%
6C3HED lymphosarcoma; oral, 75 mg/kg, BIDX 8
  Tox/Tot (mice which died / total): 2/10
6C3HED lymphosarcoma; oral, 150 mg/kg, BIDX 8
  Tox/Tot (mice which died / total): 2/10
6C3HED lymphosarcoma; oral, 300 mg/kg, BIDX 8
  Tox/Tot (mice which died / total): 9/10

## CCCCNC(=O)NS(=N)(=O)c1ccc(C)cc1 (stereo not drawn) [compound 16, N-butyl-N'-(p-toluenesulfonimidoyl)urea]
[1]
  activity in an antidiabetic screen: inactive
